# Test results reported in paper PMC6511062, “Preclinical candidate for the treatment of visceral leishmaniasis that acts through proteasome inhibition” (Proceedings of the National Academy of Sciences of the …, 2019).
# Entries after “also recorded” stand apart in the source; their conditions may differ.
# What was measured:
# [1] = Pharmacokinetics in male beagle dogs; type: in vivo, dog
# Procedure: 5. Intrinsic clearance (CLint) […]
# 6. Pharmacokinetic studies.
# Mouse pharmacokinetic studies were conducted in male CD-1 mice and male beagle dogs. 3 animals per group were used for each study performed.
# A dose of 3 mg/kg was administered intravenously, in a bolus form to mice and infused over a 30 min period to dogs. For all the intravenous studies compound were dissolved in 5% DMSO/20% kleptose in saline.
# A dose of 10 mg/kg was orally administered by gavage to the two species in a suspension of 1% methylcellulose to investigate oral pharmacokinetics.
# Peripheral blood samples were obtained at 5, 15, 30 min, 1, 2, 4, 6 ,8 and 24 h after intravenous administration and 15, 30, 45 min,1, 2, 4, 6, 8 and 24 h after oral administration. Blood was 1/2 diluted with milliQ water and immediately frozen on dry ice until analysis. Quantification was performed by means of LC-MS/MS (API4000), with a lower limit of quantification of 1 ng/mL.
# Pharmacokinetic parameters, namely clearance (CL), volume of distribution at steady state (Vss) and bioavailability (F%), were estimated using Phoenix, WinNonLin […]
# Data analysis and calculation of pharmacokinetic parameters was performed using Phoenix, WinNonLin Version 6.3.
# Following the intravenous administration, the whole blood clearance was calculated
# [2] = tested on: L. donovani proteasome β subunits; assay: Activity-based probe (UbiQ-018) labelling of L. donovani proteasome; type: binding, Leishmania donovani; details: 100 µM
# Procedure: m. Activity-Based Probe Labelling of THP1 and L. donovani proteasome
# Proteasome enriched fractions from THP1 (20 µg), L. donovani (10 µg) and L. donovani […]
# µM for 1 h. Proteasome enriched fractions were also incubated with DMSO as control.
# For all proteasome labelling experiments, the active-site probe Me4BodipyFL-Ahx3Leu3VS (UbiQ-018) was used at final concentration of 500 nM in sucrose buffer (50 mM Tris buffer pH 7.5, 5 mM magnesium chloride, 1 mM EDTA, 50 mM NaCl, 250 mM sucrose, 2 mM ATP, 1 mM DTT). Proteasome enriched fractions treated with […]
# DMSO or test compounds, were incubated with the probe for 2h at RT. Samples were then denatured by addition of Laemmli sample buffer, heated to 95°C for 10 min and separated by electrophoresis on a 15% SDS-PAGE acrylamide gel. Following separation, gels were scanned in the fluorescein channel of a ChemiDoc reader (λ excitation/emission = 480/530 nm). Fluorescent proteins were excised and MALDI– TOF analysis carried out by the FingerPrints Proteomics service at the University of […]
# 10. Measuring Proteolytic activity of Leishmania tarentolae Proteasome […]
# pre-prepared as a 10 mM stocks in 100 % DMSO and then diluted 1 in 3, over 11 points, prior to dispense of 100 nl of each dilution series into black, low volume, 384-well microplates. Proteasome was prepared as a 0.5 µg/mL working solution in assay buffer (50 mM HEPES (pH 7.5), 150 mM NaCl, 5 mM MgCl2, 5% glycerol, 1 mM CHAPS) and 5 µL was added using a Multidrop Micro (Thermo Fisher Scientific) to all wells containing compound dilutions on the test microplates. The microplates were then centrifuged for 1 min at 1000 rpm and incubated for 15 mins at 25 °C, prior to an assay initiating addition of 5 µl of fluorogenic substrate, which had been prepared as a 1 µM […]
# The assay microplates were then centrifuged for 10 secs before using a Tecan M1000 Pro to monitor the increase of fluorescent intensity at 25 °C by excitation of the liberated Rhodamine110 at 485 nm and emission at 535 nm every 125 secs for 20 cycles. […]
# calculate initial rates of reactions for all assay wells on the microplate by fitting to a linear regression model. The initial rates of reaction for all compound concentrations tested were normalised to the initial rates determined for 16 replicate control wells per microplate of both uninhibited reaction and no-proteasome background, and subsequently, IC50 values were determined by fitting the normalised data to the following four-parameter logistic model; y = a + (( b – a) / ( 1 + ( 10 ^ x / 10 ^ c ) ^ d ), where ‘a’ is the minimum, ‘b’ is […], ‘c’ is the IC50 and ‘d’ is […].
# 11. Cryo-EM of 20S Leishmania tarentolae proteasome a. Purification of 20S Leishmania tarentolae proteasome. […]
# L. donovani (LV9) = assay: Mouse model of VL (in vivo efficacy in female Balb/C mice); parameters: species or system Leishmania donovani; details: 50 mg/kg b.i.d. (10 days PO)
# [3] = male, beagle, whole blood, dog, 3 mg/kg iv 0.5 h infusion
smiles,measurement,setting,value
O=C(Nc1ccc(F)c(-c2ccn3c(N4CCOCC4)cnc3n2)c1)N1CCCC1 [Compound 8],blood clearance,[1]; dog,30 mL/min per kilogram
same,Cl (%LBF),"[1]; dog, 3 mg/kg iv",53%
same,Vss,"[1]; dog, 3 mg/kg iv 0.5 h infusion, 3 mg/kg",1.3 L/kg
same,Vd,"[1]; male, beagle, dog, whole blood, iv, 3 mg/kg, dog, 3 mg/kg iv 0.5 h infusion, read-out: Vss",1.34 ± 0.381 L/kg
same,clearance,[1]; [3],29.6 ± 6.06 mL/min/kg
same,half-life,[1]; [3],31.2 ± 4.8 min
same,bioavailability,"[1]; whole blood, Beagle male dog, 10 mg/kg po, read-out: F (oral bioavailability)",46%
same,UbiQ-018 labelling of proteasome subunits,[2]; L. donovani WT extracts,selectively blocks labeling of β5; also recorded: selectively blocked UbiQ-018 labeling of the β5 subunit
same,UbiQ-018 labelling of proteasome subunits,[2]; L. donovani-resistant RES II extracts,could not be abolished
same,Reduction in parasite burden (compared to the vehicle control group),L. donovani (LV9),99.1%
